One series has as its system P. falciparum 3D7. Briefly: SYBR I dye DNA staining assay (Pfizer), P. falciparum 3D7.
The subject of the next series is P. falciparum K1. Nature of the series: SYBR I dye DNA staining assay (Pfizer), P. falciparum K1.
The subject of another series is P. falciparum NF54. Briefly: SYBR I EC50 determination assay (AstraZeneca). In kind it is cell-based. The following applies: Plasmodium falciparum; P. falciparum strain NF54; 72 h; read-out: Pf EC50. The source says: (§1) AZ also used a SYBR® I EC50 determination assay, but with P. falciparum NF54 (MRA-1000, MR4, ATCC, Manassas, VA, USA). The per cent inhibition with respect to the control was plotted against the logarithm of the drug concentration. The curve was fitted by non-linear regression using the sigmoidal dose–response (variable slope) formula to yield the concentration–response curves. The concentration at which 50% inhibition was observed was taken as the EC50 value of the compound. A cytotoxicity assay was also performed by AZ, using the human hepatoma Hep G2 cell line and the per cent inhibition and EC50 values were calculated as described for P. falciparum.
AstraZeneca. This group also used a SYBR® I IC50 determination assay. Compounds were serially diluted in 384 well plates (C3570, Corning Life Sciences). 1 µL of compound was dispensed in a 10 point concentration response format using a Biomek Fx liquid dispenser. To this, 50 µL of P. falciparum NF54 (MRA-1000, MR4, ATCC, Manassas, Virginia) ring stage culture at 2% parasitemia and 0.3 % hematocrit was added using a multidrop dispenser. […] After incubation, the % parasitemia in one of the untreated culture control wells was determined by light microscopy. […] Green fluorescence (485 nm excitation/ 530 nm emission) was measured using the Safire 2 fluorimeter (Tecan Instruments). […]

For series [1], the system named is human hepatoma Hep G2 cell line. Briefly: Hep G2 cytotoxicity assay (AstraZeneca). In kind it is cell-based. The following applies: HepG2, 72 h.
Source text: as §1
The human hepatoma Hep G2 cell line was used for the cytotoxicity assay. 1 µL of compound was dispensed in a 10 point concentration response format using a Biomek Fx liquid dispenser into white sterile 384-well opaque bottom plates (C3570, Corning Life Sciences). To this, 50 µL of Hep G2 cells at 3000 cells/well was added using a Multidrop dispenser. The plates were then incubated at 37 °C for 72 h in a 5% CO2 incubator. Resazurin at a final concentration of 10 µM was added to all wells and the plates were incubated at room temperature for 4 h. Fluorescence (excitation 535 nm; emission 590 nm) was measured in a Safire 2 fluorimeter. The % inhibition with respect to the control was plotted against the logarithm of the drug concentration. […]

In a further series the test system is P. berghei. Nature of the series: Plasmodium berghei four-day suppression test. In kind it is in vivo. The note with it: 100–200 mg/kg BID oral, four days, BALB/c mice, with oral aminobenzotriazole 100 mg/kg. Here is the method:
AZ compounds were tested by the company for in vivo efficacy in a standard four-day suppression test using the rodent malaria parasite P. berghei. All animal experimentation protocols were approved by the Institutional Animal Ethics Committee registered with the Government of India (Registration No: 5/1999/CPCSEA). Adult male BALB/c mice (purchased from RCC Laboratories, Hyderabad, India) were used for efficacy studies. Animals were randomly distributed to cages quarantined for one week with veterinary examination and then taken into experimentation. Feed and water were given ad libitum. Briefly, male BALB/c mice were infected intraperitoneally with 2×10^7 infected erythrocytes on day 0. […] On day 3, per cent parasitaemia was estimated microscopically from a Giemsa-stained blood smear. The effect of the test compound on parasite growth was calculated as the difference between the mean value of the control group (taken as 100%) and those of the experimental group and expressed as per cent reduction. Reference anti-malarial compounds (chloroquine and artemisinin) were used as positive controls and the results obtained matched those published in the literature. Pharmacokinetics were analysed in healthy as well as infected mice. Data from healthy mice were used for designing the dosing regimen for the efficacy studies. […]

Details of series [2]: method as in unpublished data provided by Pfizer Inc. The note with it: ref unpublished data provided by Pfizer Inc; cited from earlier work.
The subject of series [3] is P. falciparum 3D7A strain. Nature of the series: Whole-cell [3H] hypoxanthine incorporation assay (GSK). The following applies: mean of three independent measures. In kind it is cell-based, Plasmodium falciparum. The procedure:
GSK Tres Cantos used a whole-cell [^3H] hypoxanthine radioisotope incorporation assay to determine per cent parasite inhibition at 48 hours and 96 hours. Plasmodium falciparum 3D7A strain (Malaria Research and Reference Reagent Resource Center MR4; [32]) was maintained as described previously. Parasite growth inhibition assays and EC50 determination were carried out following standard methods. Three independent experiments were conducted for each time duration and test compound.
GlaxoSmithKline, Tres Cantos. A whole-cell [^3H]hypoxanthine radioisotope incorporation assay was performed to determine percent parasite inhibition at 48 h and 96 h. Plasmodium falciparum 3D7A strain (Malaria Research and Reference Reagent Resource Center MR4; http://www.mr4.org), was maintained in human erythrocytes (Transfusions Blood Bank, Madrid) with Albumax II medium, as previously described. Parasite growth inhibition assays and EC50 determination were carried out following standard methods. Briefly, cultures with 0.5% parasitemia and 2.5% hematocrit were incubated with the 2 μM of test drug for 48 h or 96 h. [^3H]hypoxanthine (0.8 μCi/mL) in 10 μL of RPMI was added 24 h before parasites were harvested (Cell Harvester 96™, TOMTEC, Hamden, CT). Incorporated radioactivity was quantified with a Wallac MicroBeta® TriLux (Model 1450 LS, PerkinElmer). Three independent experiments were conducted for each time duration and test compound.

In the next series the target is hERG (Homo sapiens, UniProt Q12809). Nature of the series: Independently run hERG assay. (In general: Block of hERG is tested as a sign of cardiac risk.)
Series [4] can be described thus: Pharmacokinetics in P. falciparum-infected humanized mice. The following applies: for Cmax / Tmax: NOD-scid IL-2Rγ^null, mouse, po; for Cmax / Tmax / AUC (0–t): whole blood; for DNAUC(0–t): dose-normalized AUC(0–t); for DNAUC(0–t) / AUC (0–t): mean (SD).
Description: The pharmacokinetics of compounds after oral administration was determined concurrently in the same mice used for the therapeutic efficacy assay. Samples were taken at 0.25, 0.5, 1, 3, 6, 8, and 24 hours after the first dose. Compound levels were measured in 25 μL blood samples that were mixed with 25 μL of saponin (0.1% in water) and processed under standard liquid–liquid extraction conditions [39]. Pharmacokinetic parameters were calculated using WinNonlin 5.2 non-compartmental analysis.
On the set-up of series [5]: method as in data provided by Pfizer. The note with it: human, single doses from 10 mg to 480 mg; ref data provided by Pfizer; cited from earlier work.
Series [6] relates to P. falciparum Pf3D7^0087/N9. Briefly: Plasmodium falciparum huSCID humanized mouse model, four-day test.
Description: In vivo testing using this model was performed by GSK at Tres Cantos, against P. falciparum 3D7 (in vivo strain Pf3D7^0087/N9generated by GSK using Pf3D7 obtained from Eduardo Dei-Cas, Institute Pasteur, Lille, France [36]) growing in peripheral blood of female NOD-scid IL-2Rγ^null mice engrafted with human erythrocytes, i e, a ‘humanized’ mouse model, following published protocols [36, 37]. Briefly, animals were infected intravenously with 20×10^6 infected erythrocytes on day 0. […] Dosing was initiated at the maximum tolerated dose in mice on day 3 after infection and continued once daily for four days. Each experimental group was n = 3 mice unless otherwise stated. Control animals received vehicle only and a quality control assay used chloroquine at target doses of 3 mg/kg and 7 mg/kg. Venous blood samples for parasitology (2 μL) were taken at days 3, 5, and 7 after infection. Anti-malarial efficacy was assessed using a standard four-day test (i e, at day 7) and blood parasitaemia was measured by fluorescence-activated cell sorting (FACS) analysis [38]. The limit of detection (per cent of P. falciparum) was 0.01%. The number of parasites ×10^6 cells was recorded and data were analysed by non-linear fitting to a logistic equation of log10 (per cent parasitaemia at day 7 after infection) versus the dose level administered.
Per cent parasitaemia at day 7 after infection in treated versus control animals was analysed using a one factor ANOVA with Tukey’s post-test analysis. […] ED90 was calculated similarly. Analysis was performed using WinNonlin 5.2 and GraphPad Prism 5.0.
Setting [7] is: Plasmodium falciparum, 3D7, read-out: EC50 3D7.
The mark [8] stands for this setting: Plasmodium falciparum, K1, read-out: EC50 K1.

The text below walks through data of paper PMC4021201, “Repositioning: the fast track to new anti-malarial medicines?” (Malaria Journal, 2014).

Broadly, the EC50 is the concentration needed to bring the measured effect to its halfway point. By IC50 is commonly meant the midpoint of a concentration-inhibition curve. Low values mean inhibition by little substance, high ones a need for much substance. The term Cmax denotes the highest concentration seen after dosing. As usually defined, the Tmax is the time from dosing to the highest level. The term ED50 denotes the dose that gives a 50% effect, or the effect in half of the subjects. Low values mean an effect at a small dose, high ones a need for a large dose.

Several values for one entry are separate records, joined by “and”; a condition that tells them apart may be missing. Identical values can stand only once. Like-named read-outs stand apart in the source and are kept apart here.

Sequence of hERG (Q12809 whole entry): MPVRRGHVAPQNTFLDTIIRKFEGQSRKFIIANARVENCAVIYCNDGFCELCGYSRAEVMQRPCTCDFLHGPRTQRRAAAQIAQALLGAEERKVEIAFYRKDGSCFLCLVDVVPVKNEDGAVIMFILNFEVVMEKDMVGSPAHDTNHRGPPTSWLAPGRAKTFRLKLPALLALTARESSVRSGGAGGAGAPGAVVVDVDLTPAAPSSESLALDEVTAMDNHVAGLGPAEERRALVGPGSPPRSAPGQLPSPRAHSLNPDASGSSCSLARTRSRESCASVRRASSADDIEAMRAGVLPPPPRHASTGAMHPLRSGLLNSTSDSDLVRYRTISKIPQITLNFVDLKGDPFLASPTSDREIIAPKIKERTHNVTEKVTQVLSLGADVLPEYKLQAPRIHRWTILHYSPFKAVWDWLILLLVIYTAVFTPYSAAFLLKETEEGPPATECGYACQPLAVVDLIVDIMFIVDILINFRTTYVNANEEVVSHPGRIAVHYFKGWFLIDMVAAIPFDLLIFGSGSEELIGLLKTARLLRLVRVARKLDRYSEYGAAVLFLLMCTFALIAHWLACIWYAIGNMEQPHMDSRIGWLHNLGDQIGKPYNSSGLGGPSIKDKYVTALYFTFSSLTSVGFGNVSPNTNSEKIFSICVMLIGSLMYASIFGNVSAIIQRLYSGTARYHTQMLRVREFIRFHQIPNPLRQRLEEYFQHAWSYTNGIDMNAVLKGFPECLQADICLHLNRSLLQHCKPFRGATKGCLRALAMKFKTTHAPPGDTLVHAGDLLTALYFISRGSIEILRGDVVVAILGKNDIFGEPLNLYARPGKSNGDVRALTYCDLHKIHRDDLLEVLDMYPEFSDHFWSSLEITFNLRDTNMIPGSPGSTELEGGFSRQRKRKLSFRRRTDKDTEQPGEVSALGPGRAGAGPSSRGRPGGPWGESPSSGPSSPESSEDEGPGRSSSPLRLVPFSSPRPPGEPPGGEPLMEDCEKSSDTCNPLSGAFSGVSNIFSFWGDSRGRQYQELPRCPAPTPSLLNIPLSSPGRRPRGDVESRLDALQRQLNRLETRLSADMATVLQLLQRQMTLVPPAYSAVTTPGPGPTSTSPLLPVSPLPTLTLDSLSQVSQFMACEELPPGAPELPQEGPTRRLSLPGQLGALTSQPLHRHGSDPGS
Description for P. falciparum K1: Cultures of P. falciparum 3D7 and K1 (both from David Baker, LSHTM) were maintained in O+ human erythrocytes (Research Red Cells and Blood Transfusion Service). 384-well assay plates contained 250 nL of compound at a serial dilution of 1:3 in 100% DMSO, starting from 200 µM (in the plate i.e. 20 µM final) and minimum and maximum controls. After addition of 50 μL of infected erythrocytes per well, plates were incubated at 37°C for three days in 5% CO2, 5% O2 and 90% N2. […] Percent anti-malarial activity was calculated relative to the minimum and maximum controls for each of the 11 drug concentrations and EC50 values determined from the resulting data plot.

As to `CCNCc1cncc(-c2ccc3[nH]nc(-c4nc5c(F)cc(F)cc5[nH]4)c3c2)c1C` [AG-024322], the EC50 with P. falciparum 3D7 (read-out: EC50 3D7, mean (95% CI), Pfizer SYBR I fluorescence assay) amounted to 700 nM; in the series on P. falciparum K1 (read-out: EC50 K1, mean (95% CI), Pfizer SYBR I fluorescence assay) it was 400 nM.

Regarding `CC(C)Oc1cc(Nc2nc(N[C@@H](C)c3ccc(F)cn3)ncc2Cl)n[nH]1` [AZ-1], the figures for the EC50 (with P. falciparum NF54; in [1]) were 600 nM and 10.4 µM, respectively. The “growth inhibition in P. berghei-infected mice” value in the series on P. berghei is 50–60%.

As for `COc1ccc(C(=O)c2cn(C(C)C)c3ncnc(N)c23)cc1NC(=O)Nc1ccc(Cl)cc1Cl` [CE-245677], the 50% effective concentration (EC50) stood at 1100 nM with P. falciparum 3D7 (setting [7]) and 800 nM in the series with P. falciparum K1 (setting [8]). Also, in [2], the “human plasma level with significant central nervous system adverse events” value is recorded as ~ 1.5 μM.

On to `CC[C@@]1(O)C(=O)OCc2c1cc1n(c2=O)Cc2c-1nc1cc3c(cc1c2CN1CCN(C)CC1)OCCO3` [Lurtotecan], for which half-maximal inhibition in series [3] (Plasmodium falciparum) (IC50) required 191 ± 62 nM.

On to `COc1ccc(OC)c(Cc2cnc3nc(N)nc(N)c3c2C)c1` [Piritrexim], for which half-maximal inhibition in series [3] (Plasmodium falciparum) (IC50) required 11 ± 1 nM.

Regarding `CCN(CC)CCN(Cc1ccc(-c2ccc(C(F)(F)F)cc2)cc1)C(=O)Cn1cc(Cc2cnn(C)c2)c(=O)nc1SCc1ccc(F)cc1` [SB-435495], 1130 ± 146 nM corresponded to half-maximal inhibition in series [3] (IC50).

Turning to `Cc1nc2cnccc2n1-c1ccc(C(=O)N2CCC(=C3c4ccc(Cl)cc4CCc4cccnc43)CC2)cc1` [UK-112,214], the EC50 was 550 nM with P. falciparum 3D7 (setting [7]) and 600 nM with P. falciparum K1 (setting [8]). The molecule further had a hERG on hERG of 2.8 µM. Further, the highest concentration (Cmax) in series [4] (100 mg/kg) is 8610 ng/mL; in series [4] (300 mg/kg) it was 17600 ng/mL; in [5] it was 14 to 4145 ng/mL. Further, the Tmax in [4] (100 mg/kg) amounted to 4 h; in series [4] (300 mg/kg) it was 3.3 h. The “DNAUC(0–t)” value is 0.859 (0.32) μg · h · mL^−1 · day^−1 in series [4] (target dose 100 mg/kg oral) and 1.03 (0.45) μg · h · mL^−1 · day^−1 in series [4] (target dose 300 mg/kg oral). The figures for the “AUC (0–t)” value in series [4] (target dose 100 mg/kg oral) and in series [4] (target dose 300 mg/kg oral) were 72.1 (2.7) μg · h · mL and 231 (101) μg · h · mL, respectively. The molecule also displayed a median effective dose (ED50) in series [6] (Plasmodium falciparum, in Mus musculus, parasitaemia at day 7 after infection, once daily for four days, mean (95% CI)) of 80.6 mg/kg. Also, the AUCED90 in [6] (blood exposure needed to inhibit parasitaemia at day 7 by 90% vs vehicle) was 111.5 μg · h · mL^−1 · day^−1 and 111.5 (106.6, 121.1) μg · h · mL^−1 · day^−1. Besides, the ED90 in series [6] (parasitaemia at day 7 after infection, once daily for four days, mean (95% CI)) was 131.3 mg/kg and 131.3 (112.3, 156.7) mg/kg.
